Results: US10179128B2, “Regimens for treating and preventing lysosomal disorders and degenerative disorders of the central nervous system” (Amicus Therapeutics, Inc., priority 2015, dated 2019)
Positions count from the first letter of the chain named. Where a name gives a salt, the structure may show the parent alone.

What was measured:
[1] = Brain tissue washout / efflux half-life; type: in vivo
Text: To evaluate the potential therapeutic effect of a chaperone, the washout period can be examined to determine the length of time required to washout the inhibitor. Otherwise, enzyme that is successfully trafficked to the lysosome may not have optimal functionality because the chaperone, which also functions as a competitive inhibitor, can continue to compete with the substrate for the enzyme active site.

pKa = type: physicochemical
[2] = Blood-brain barrier penetration in mice, oral 30 mg/kg FBE; type: in vivo; settings: for Kp / Cmax: mouse, oral, 30 mg/kg; for Kp: brain and plasma, read-out: Barin/Plasma Cmax (%); for Cmax: plasma
Text: The ability of a drug to penetrate the blood-brain barrier can be an important function. Without the capability of penetrating into the brain, the drug will not likely have a therapeutic effect in tissues in the brain.

GCase = target: T1, GCase (Mus musculus, UniProt P17439); experiment: ED50 in brain; type: in vivo
T1 construct: from tissue; host or cells: brain
T1 sequence (P17439 20-515): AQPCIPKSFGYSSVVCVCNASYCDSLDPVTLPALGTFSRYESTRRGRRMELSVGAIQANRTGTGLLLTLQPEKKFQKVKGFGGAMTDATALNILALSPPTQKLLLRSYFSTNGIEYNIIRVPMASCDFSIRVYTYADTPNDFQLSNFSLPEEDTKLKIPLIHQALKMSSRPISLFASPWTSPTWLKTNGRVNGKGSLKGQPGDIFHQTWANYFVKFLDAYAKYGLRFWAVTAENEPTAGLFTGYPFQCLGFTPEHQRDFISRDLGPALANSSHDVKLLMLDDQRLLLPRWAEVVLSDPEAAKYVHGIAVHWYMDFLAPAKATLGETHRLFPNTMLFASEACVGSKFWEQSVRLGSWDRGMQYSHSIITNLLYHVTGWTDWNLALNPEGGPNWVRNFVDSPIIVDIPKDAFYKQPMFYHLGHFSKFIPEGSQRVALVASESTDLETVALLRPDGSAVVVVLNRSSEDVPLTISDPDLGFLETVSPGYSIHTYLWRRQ

[3] = Bioavailability (plasma as percent oral dose); type: in vivo
GCase N370S = target: T2, GCase N370S (Homo sapiens, UniProt P04062, N409S); experiment: cell-based
T2 sequence (P04062 40-536 N409S): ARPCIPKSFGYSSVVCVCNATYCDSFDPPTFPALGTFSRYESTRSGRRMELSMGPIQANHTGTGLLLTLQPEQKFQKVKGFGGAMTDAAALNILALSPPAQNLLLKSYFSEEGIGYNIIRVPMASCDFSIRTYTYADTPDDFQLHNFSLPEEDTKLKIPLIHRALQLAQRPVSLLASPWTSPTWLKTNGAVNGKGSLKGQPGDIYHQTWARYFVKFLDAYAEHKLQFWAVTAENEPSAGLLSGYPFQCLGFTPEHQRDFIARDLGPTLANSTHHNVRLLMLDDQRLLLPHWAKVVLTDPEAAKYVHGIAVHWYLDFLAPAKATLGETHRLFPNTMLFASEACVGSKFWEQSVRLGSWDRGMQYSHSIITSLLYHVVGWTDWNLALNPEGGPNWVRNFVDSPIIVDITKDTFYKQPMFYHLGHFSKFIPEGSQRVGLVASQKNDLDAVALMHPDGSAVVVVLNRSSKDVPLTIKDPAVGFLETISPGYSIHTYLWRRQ

[4] = target: T3, recombinant human GCase (rhGCase) (Homo sapiens, UniProt P04062); experiment: In vitro thermal stability assay of rhGCase (SYPRO Orange fluorescence); type: binding; settings: 100 μM compound, neutral pH; enzyme alone approximately 53° C.
T3 sequence (P04062 40-536): T2 sequence (P04062 40-536 N409S) with S370N
Text: A dye (SYPRO® Orange) that fluoresces when it binds to hydrophobic regions of enzyme was used to assess stability, because unstable enzyme that loses its native conformation likely exposes internal hydrophobic amino acids, leading to an increase in fluorescence.

rhGCase = target: T4, rhGCase (Homo sapiens, UniProt P04062); settings: rats
T4 sequence (P04062 40-536): T2 sequence (P04062 40-536 N409S) with S370N

N370S mice = experiment: Example 6: daily oral dosing of IFG tartrate in N370S mice; type: in vivo
Experimental: (§1) The purpose of this study was to first confirm that the GlcSph substrate was elevated in N370S and L444P mutant mouse models.
(§2) Both compounds were administered daily via an oral route.

[5] = Blood-brain barrier penetration in rats, single 100 mg/kg FBE p.o.; type: in vivo; settings: rat, brain and plasma, po, exposure in nM-hr, read-out: total brain exposure as % of plasma exposure
L444P mice [6] = experiment: Comparison of Examples 6-8 in L444P mice; type: in vivo
Text: Changes in brain, liver, and spleen GCase activity were compared across the studies of Examples 6-8. In FIGS. 20 and 21, C1 denotes the study from Example 6, C2 denotes the study from Example 7, and C3 denotes the study from Example 8.

L444P mice [7] = experiment: Example 6: daily oral dosing of Compound 3 in L444P mice; type: in vivo
Experimental: as §1, §2

L444P mice [8] = experiment: Example 8: additional dosing regimens of Compound 3 in L444P mice; type: in vivo
Experimental: The purpose of this study was to improve dosing choices based on data collected from Example 7. Specific tissues of L444P mice that were measured were the liver, brain, spleen, bone, marrow, and plasma. […] In Example 8, two dosing strategies were used, fixed dose and constant weekly dose. All doses were administered orally in drinking water. Fixed dose mice were given 1 mg/kg FBE either daily, two days a week, or three days a week. Constant weekly dose mice were given a total of 7 mg/kg FBE per week, either three days a week (Monday, Wednesday, Friday), two days a week (Monday, Thursday), or daily. For example, mice receiving 3 doses per week (Monday, Wednesday, Friday) would receive 2.33 mg/kg FBE in each dose, while mice receiving doses twice a week (Monday, Thursday) would receive 3.5 mg/kg FBE per dose.

L444P mice [9] = experiment: Example 7: daily dosing of Compound 3 in L444P mice over four weeks, fixed and ascending doses in drinking water; type: in vivo
Experimental: Both fixed and ascending dosing schemes were used and were administered in drinking water. Four fixed dose groups, 0.01 mg/kg FBE, 0.1 mg/kg FBE, 1 mg/kg FBE, and 10 mg/kg FBE were used. A fifth group, which used an ascending dose, was also included, and it began at 0.01 mg/kg FBE and increased by 10-fold each week, with a dose during the final week of 10 mg/kg FBE.

[10] = mice, oral 30 mg/kg FBE, brain tissue
[11] = all dose groups, Day 1 and Day 30 after 24-hour washout
[12] = ascending 0.01-10 mg/kg FBE dose

For `OC[C@H]1CNC[C@@H](O)[C@@H]1O` [Isofagomine, isofagomine, reference compound], the “Brain tissue efflux (half-life)” value [1] was 2.9 h, the half-life [1] was ~3 h and the pKa (pKa) was 8.4. For the same molecule, the “Brain Cmax at 30 mg/kg” value [2, 10] was 0.3 µM, the Kp [2] was 0.0165 and the Cmax [2] was 17.5 µM. For the same molecule, the ED50 (GCase) was 56.4 mg/kg and the bioavailability [3] was 53%.

In the case of `O[C@H]1[C@H](O)CNC[C@@H]1C(F)F` [Compound 1], the half-life [1] is reported as ~1.4 h, the pKa (pKa) is reported as 7.1 and the “Brain Cmax at 30 mg/kg” value [2, 10] is reported as 9.7 µM. For the same molecule, the Kp [2] was 0.115, the Cmax [2] was 84.5 µM and the ED50 (GCase) was 5.2 mg/kg. For the same molecule, the Emax (GCase N370S) was 106%, the bioavailability [3] was 106% and the “temperature of peak fluorescence (unfolding)” value [4] was 65 °C. For the same molecule, the “normalized GCase activity in plasma versus rhGCase alone” value (rhGCase; 3 mg/kg oral gavage 30 minutes before IV rhGCase) was “sustained a higher normalized GCase activity in plasma longer” and the “rhGCase western blot band versus no chaperone” value (rhGCase; 3 mg/kg, 5 minute and 10 minute intervals) was “a more intense protein band”.

In the case of `Cl.O[C@H]1[C@H](O)CNC[C@@H]1C(F)F` [Compound 2], the “crossing of the blood-brain barrier” value ([2]; mice) is reported as “capable of crossing the blood-brain barrier” and the “Brain Cmax at 30 mg/kg” value [2, 10] is reported as 9.7 µM.

For `OC[C@H]1CNC[C@@H](O)[C@@H]1O` [IFG tartrate, isofagomine tartrate], the “GlcSph in liver versus control” value (N370S mice; 100 mg/kg FBE daily oral) was “reduction in GlcSph substrate”, the “GlcSph in spleen versus control” value (N370S mice; 100 mg/kg FBE daily oral) was “significant reduction of GlcSph” and the “reduction in bone GlcSph concentration” value (N370S mice; bone) was 31%. For the same molecule, the “reduction of GlcSph in marrow” value (N370S mice; marrow) was 45%, the Kp [5] was 0.29 and the “crossing of the blood-brain barrier” value ([2]; mice) was “capable of crossing the blood-brain barrier”. The “peak compound concentration in brain” value ([2]; mice, oral 30 mg/kg FBE, brain tissue, value in nM) was 30 nM.

For `O=C(O)/C=C/C(=O)O.O[C@H]1[C@H](O)CNC[C@@H]1C(F)F` [Compound 3], the “brain GCase activity” value (L444P mice [6]; 0-10 mg/kg FBE ascending dose, studies of Examples 6 and 7) was “increased”, the “brain GCase activity” value (L444P mice [6]; 1 mg/kg FBE dose, Example 7 and Example 8) was “increased” and the “liver GCase activity” value (L444P mice [6]; 1 mg/kg FBE dosing regimens, Example 7 and Example 8) was “elevated”. The “brain GlcSph level versus vehicle” value (L444P mice [6]; 10 mg/kg FBE) was “increased level of GlcSph over the vehicle”, the “brain GlcSph level versus vehicle” value (L444P mice [6]; ascending dose (0-10 mg/kg FBE)) was “increased level of GlcSph over the vehicle” and the “GlcSph substrate level change in the spleen” value (L444P mice [6]; ascending dose (0-10 mg/kg FBE) and 1 mg/kg FBE dose, Examples 6-8) was “significant”. The “liver GCase activity” value (L444P mice [6]; ascending dose, Example 6 and Example 7) was “higher GCase activity”, the “enhancement of GCase activity in liver” value (L444P mice [7]; 10 mg/kg FBE daily) was 7.6 fold and the “GlcSph in spleen versus control” value (L444P mice [7]; 10 mg/kg FBE daily oral) was “significant reduction of GlcSph”. The “enhancement of GCase activity in brain” value (L444P mice [7]; 10 mg/kg FBE daily, almost equivalent to wild-type activity) was 2.8 fold, the Kp [5] was 0.85 and the “brain GCase activity versus vehicle” value (L444P mice [8]; 1 mg/kg FBE daily dose) was “increased and was significant”. For the same molecule, the “liver GlcSph concentration versus vehicle” value (L444P mice [8]; 1 mg/kg FBE daily dose) was “significant reduction”, the “spleen GlcSph concentration versus vehicle” value (L444P mice [8]; 1 mg/kg FBE daily dose) was “significant reduction” and the “plasma concentration of GlcCer” value (L444P mice [8]; across all doses) was “no significant differences”. For the same molecule, the “GCase activity in brain, liver and spleen versus vehicle” value (L444P mice [9]; 0.01 mg/kg FBE and 0.1 mg/kg FBE) was “did not show significant differences”, the “brain GlcSph versus vehicle” value (L444P mice [9]; 1 mg/kg FBE) was “increase in GlcSph” and the “liver GlcSph versus vehicle” value (L444P mice [9]; 1 mg/kg FBE) was “decrease in GlcSph”. For the same molecule, the “spleen GlcSph versus vehicle” value (L444P mice [9]; 1 mg/kg FBE) was “decrease in GlcSph”, the “increase in brain GCase activity versus vehicle” value (L444P mice [9]; 1 mg/kg FBE daily) was “almost a two-fold increase” and the “increase in liver GCase activity versus vehicle” value (L444P mice [9]; 1 mg/kg FBE daily) was 5 fold. The “increase in spleen GCase activity versus vehicle” value (L444P mice [9]; 1 mg/kg FBE daily) was “two-fold increase”, the “brain GlcCer concentration versus vehicle” value (L444P mice [9]; 1 mg/kg FBE, after 30 days) was “No significant difference” and the “plasma GlcCer versus vehicle” value (L444P mice [9]; [11]) was “no significant increases or decreases”. The “plasma GlcSph versus vehicle” value (L444P mice [9]; [11]) was “no significant increases or decreases”, the “liver GlcCer concentration versus vehicle” value (L444P mice [9]; all dose groups, after 30 days) was “No significant differences” and the “brain GlcSph concentration versus vehicle” value (L444P mice [9]; [12]) was “increase in substrate concentration”. The “increase in brain GCase activity versus vehicle” value (L444P mice [9]; [12]) was “about three-fold”, the “increase in liver GCase activity versus vehicle” value (L444P mice [9]; [12]) was “about 8 fold” and the “increase in spleen GCase activity versus vehicle” value (L444P mice [9]; [12]) was “about 4 fold”. For the same molecule, the “spleen GlcSph concentration versus vehicle” value (L444P mice [9]; [12]) was “reduction in concentration” and the “brain GlcCer concentration versus vehicle” value (L444P mice [9]; ascending dose, after 30 days) was “increased”.
